According to patent US11919886B2, “4,9-dioxo-4,9-dihydronaphtho[2,3-B]furan-3-carboxamide derivatives and uses thereof for treating proliferative diseases and infectious diseases” (Academia Sinica, priority 2016, dated 2024):

Tests used:
[1] = system: Breast Cancer Cells (MCF); test: Cell viability by Cell-TiterGlo; format: cell-based; details: Homo sapiens, 48 h, two days, read-out: % of the activities in the presence of ~10 μM compound, Breast Cancer Cells (MCF)
Method: (§1) Compound 1 and its analogues shown in Table 6 below were tested for their activities on cancer cells and bacterial cells using assays described herein. H1975, MDA-MB231, and MCF7 cells were incubated in the presence of the compounds in cell growth medium containing 10% fetal bovine serum for two days in a mammalian cell culture incubatoe. Cell viability were monitored by using Cell-TiterGlo. Staphylococcus aureus and Escherichia coli were incubated in the presence of the compounds in Muller-Hinton broth for 16-24 hours in a 37° C. incubator. Bacterial growth was monitored by using Alamar Blue (Invitrogen).

[2] = system: Breast Cancer Cells (MDA-MB231); test: Cell viability by Cell-TiterGlo; format: cell-based; details: Homo sapiens, MDA-MB-231, 48 h, two days, read-out: % of the activities in the presence of ~10 μM compound, Breast Cancer Cells (MDA-MB231)
Method: as §1

[3] = system: Lung Cancer Cells (H1975); test: Cell viability by Cell-TiterGlo; format: cell-based; details: Homo sapiens, NCI-H1975, 48 h, two days, read-out: % of the activities in the presence of ~10 μM compound, Lung Cancer Cells (H1975)
Method: as §1

[4] = system: Escherichia coli; test: Bacterial growth by Alamar Blue in Muller-Hinton broth; format: cell-based; details: 16-24 hours, read-out: % of the activities in the presence of ~10 μM compound, Escherichia coli
Method: as §1

[5] = system: Staphylococcus aureus; test: as above; format: cell-based; details: ~10 μM, 16-24 hours, Alamar Blue, read-out: % of the activities in the presence of ~10 μM compound, Staphylococcus aureus
Method: as §1

[6] = system: H1975 cell line; test: Sulforhodamine B colorimetric (SRB) assay, H1975; details: Homo sapiens, NCI-H1975, 72 h, H1975 cell line, SRB assay, 72 hours

For COCCNC(=O)c1c(C)oc2c1C(=O)c1ccccc1C2=O [Compound 00054811255], which viability at 10 µM [1] is on record?
Its viability at 10 µM is 6.5%.

What about the viability at 10 µM [2] of the same compound?
Its viability at 10 µM is 13.4%.

What about the viability at 10 µM [3] of the same compound?
The viability at 10 µM was 4.2%.

And the activity at 10 µM [4]?
The activity at 10 µM was over 100%.

What about the activity at 10 µM [5] of the same compound?
Its activity at 10 µM is over 100%.

Which results are given for Cc1oc2c(c1C(=O)NCCCn1cccc1)C(=O)c1ccccc1C2=O [Compound 12, N-(3-(1H-pyrrol-1-yl)propyl)-2-methyl-4,9-dioxo-4,9-dihydronaphtho[2,3-b]furan-3-carboxamide]?
melting point: 143.5 to 150.7 °C; IC50 [6]: 0.918 µM

For Cc1[nH]c2c(c1C(=O)NCCCn1ccnc1)C(=O)c1ccccc1C2=O [Compound 45, N-(3-(1H-imidazol-1-yl)propyl)-2-methyl-4,9-dioxo-4,9-dihydro-1H-benzo[f]indole-3-carboxamide], which IC50 [6] is on record?
Its IC50 is 8.73 µM.

For Cc1oc2c(c1C(=O)NCCCN1CCCC1)C(=O)c1ccccc1C2=O [Compound 18, 2-Methyl-4,9-dioxo-N-(3-(pyrrolidin-1-yl)propyl)-4,9-dihydronaphtho[2,3-b]furan-3-carboxamide], which IC50 [6] is on record?
The IC50 was 0.024 µM.

With Cc1oc2c(c1C(=O)NCCCN1CCOCC1)C(=O)c1ccccc1C2=O [Compound 20, 2-Methyl-N-(3-morpholinopropyl)-4,9-dioxo-4,9-dihydronaphtho[2,3-b]furan-3-carboxamide] as the compound, how does the IC50 [6] read?
Its IC50 is 0.08 µM.

With CCc1oc2c(c1C(=O)NCCCn1ccnc1)C(=O)c1ccccc1C2=O [Compound 11, N-(3-(1H-imidazol-1-yl)propyl)-2-ethyl-4,9-dioxo-4,9-dihydronaphtho[2,3-b]furan-3-carboxamide] as the compound, how does the IC50 [6] read?
The IC50 was 0.288 µM.

For CCCCNC(=O)c1c(C)oc2c1C(=O)c1ccccc1C2=O [Compound 00055422996], which viability at 10 µM [1] is on record?
The viability at 10 µM was 6.9%.

And the viability at 10 µM [2]?
The viability at 10 µM was 20.9%.

And the viability at 10 µM [3]?
The viability at 10 µM was 4.3%.

And the activity at 10 µM [4]?
Its activity at 10 µM is over 100%.

And the activity at 10 µM [5]?
Its activity at 10 µM is over 100%.

For Cc1oc2c(c1C(=O)NCCCCn1ccnc1)C(=O)c1ccccc1C2=O [Compound 13, N-(4-(1H-imidazol-1-yl)butyl)-2-methyl-4,9-dioxo-4,9-dihydronaphtho[2,3-b]furan-3-carboxamide], which melting point is on record?
The melting point was 158.6 to 164.1 °C.

What about the IC50 [6] of the same compound?
Its IC50 is 0.25 µM.

Which results are given for Cc1oc2c(c1C(=O)NCCCCc1ccccc1)C(=O)c1ccccc1C2=O [Compound 17, 2-Methyl-4,9-dioxo-N-(4-phenylbutyl)-4,9-dihydronaphtho[2,3-b]furan-3-carboxamide]?
melting point: 151.4 to 152.7 °C; IC50 [6]: > 10 µM

What does the source list for Cc1oc2c(c1C(=O)NC(C)(C)C)C(=O)c1ccccc1C2=O [Compound 00055422098]?
viability at 10 µM [1]: 35%; viability at 10 µM [2]: 69.8%; viability at 10 µM [3]: 3.7%; activity at 10 µM [4]: > 100%; activity at 10 µM [5]: > 100%

For Cc1oc2c(c1C(=O)NCCC(C)C)C(=O)c1ccccc1C2=O [Compound 00055727872], which viability at 10 µM [1] is on record?
The viability at 10 µM was 44.3%.

What about the viability at 10 µM [2] of the same compound?
Its viability at 10 µM is 72%.

And the viability at 10 µM [3]?
The viability at 10 µM was 4.2%.

What about the activity at 10 µM [4] of the same compound?
Its activity at 10 µM is over 100%.

And the activity at 10 µM [5]?
Its activity at 10 µM is over 100%.

Which viability at 10 µM [1] does the source give for O=C(NCCN1CCOCC1)c1coc2c1C(=O)c1ccccc1C2=O [Compound 00053891400] here?
The viability at 10 µM was 6.1%.

And the viability at 10 µM [2]?
The viability at 10 µM was 12.2%.

And the viability at 10 µM [3]?
Its viability at 10 µM is 4%.

What about the activity at 10 µM [4] of the same compound?
The activity at 10 µM was over 100%.

What about the activity at 10 µM [5] of the same compound?
The activity at 10 µM was over 100%.

What does the source list for Cc1oc2c(c1C(=O)N1CCOCC1)C(=O)c1ccccc1C2=O [Compound 00056034607]?
viability at 10 µM [1]: 12.9%; viability at 10 µM [2]: 61.2%; viability at 10 µM [3]: 4.4%; activity at 10 µM [4]: > 100%; activity at 10 µM [5]: 75.8%

With O=C1c2ccccc2C(=O)c2c1oc(-c1ccccc1)c2C(=O)NCCCn1ccnc1 [Compound 9, N-(3-(1H-imidazol-1-yl)propyl)-4,9-dioxo-2-phenyl-4,9-dihydronaphtho[2,3-b]furan-3-carboxamide] as the compound, how does the IC50 [6] read?
Its IC50 is 0.826 µM.

With CC(C)c1oc2c(c1C(=O)NCCCn1ccnc1)C(=O)c1ccccc1C2=O [Compound 10, N-(3-(1H-imidazol-1-yl)propyl)-2-isopropyl-4,9-dioxo-4,9-dihydronaphtho[2,3-b]furan-3-carboxamide] as the compound, how does the IC50 [6] read?
The IC50 was 0.26 µM.

For Cc1oc2c(c1C(=O)NCCn1ccnc1)C(=O)c1ccccc1C2=O [Compound 5, N-(2-(1H-imidazol-1-yl)ethyl)-2-methyl-4,9-dioxo-4,9-dihydronaphtho [2,3-b]furan-3-carboxamide], which IC50 [6] is on record?
Its IC50 is 0.28 µM.

What does the source list for Cc1oc2c(c1C(=O)N1CCC(C)CC1)C(=O)c1ccccc1C2=O [Compound 00054506228]?
viability at 10 µM [1]: 13.6%; viability at 10 µM [2]: 54.4%; viability at 10 µM [3]: 4.6%; activity at 10 µM [4]: > 100%; activity at 10 µM [5]: 65.4%
